The text below walks through data of PubChem BioAssay AID1259407 (Chemical Carcinogenesis Research Information System (CCRIS), 2018).

The structures appear in SMILES notation. Activity calls are given as the source filed them. How the calls were made is not given here.

This data set concerns CCRIS mutagenicity, Ames/micronucleus/aberration tests. Briefly: CCRIS mutagenicity studies.
Where [1] appears, read: Test System: AMES SALMONELLA TYPHIMURIUM, Strain/Indicator: TA98, Metabolic Activation: NONE, Method: STANDARD PLATE.
Where [2] appears, read: Test System: AMES SALMONELLA TYPHIMURIUM, Strain/Indicator: TA98, Metabolic Activation: RAT, LIVER, S-9, AROCLOR 1254, Method: STANDARD PLATE.
Where [3] appears, read: Test System: AMES SALMONELLA TYPHIMURIUM, Strain/Indicator: TA100, Metabolic Activation: NONE, Method: STANDARD PLATE.
Where [4] appears, read: Test System: AMES SALMONELLA TYPHIMURIUM, Strain/Indicator: TA100, Metabolic Activation: RAT, LIVER, S-9, AROCLOR 1254, Method: STANDARD PLATE.
[5] abbreviates: Test System: AMES SALMONELLA TYPHIMURIUM, Strain/Indicator: TA98, Metabolic Activation: NONE.
Setting [6] is: Test System: AMES SALMONELLA TYPHIMURIUM, Strain/Indicator: TA100, Metabolic Activation: NONE, Method: PREINCUBATION

As for `CCN(CC)c1cc(NC(C)=O)c(N=Nc2ccc([N+](=O)[O-])cc2)cc1OC`, the mutagenic call under setting [1] is “active; positive”; the mutagenic call under setting [2] is “active; positive”; the mutagenic call under setting [3] was “inactive; negative”; the mutagenic call under setting [4] was “active; positive”; the mutagenic call (Test System: AMES SALMONELLA TYPHIMURIUM, Strain/Indicator: TA1535, Metabolic Activation: NONE, Method: STANDARD PLATE) was “inactive; negative”; the mutagenic call (Test System: AMES SALMONELLA TYPHIMURIUM, Strain/Indicator: TA1535, Metabolic Activation: RAT, LIVER, S-9, AROCLOR 1254, Method: STANDARD PLATE) is “active; positive”. The mutagenic call (Test System: AMES SALMONELLA TYPHIMURIUM, Strain/Indicator: TA1537, Metabolic Activation: NONE, Method: STANDARD PLATE) is “inactive; negative”; the mutagenic call (Test System: AMES SALMONELLA TYPHIMURIUM, Strain/Indicator: TA1537, Metabolic Activation: RAT, LIVER, S-9, AROCLOR 1254, Method: STANDARD PLATE) was “active; positive”; the mutagenic call (Test System: MOUSE LYMPHOMA, Strain/Indicator: L5178Y (TK+/TK-), Metabolic Activation: NONE, Method: SUSPENSION/PLATE) was “inactive; negative”; the mutagenic call (Test System: MOUSE LYMPHOMA, Strain/Indicator: L5178Y (TK+/TK-), Metabolic Activation: RAT, LIVER, S-9, AROCLOR 1254, Method: SUSPENSION/PLATE) is “inactive; negative”; the mutagenic call (Test System: UDS RAT HEPATOCYTES, Strain/Indicator: THY INCORP, Metabolic Activation: NONE, Method: AUTORADIOGRAPHY) was “inactive; negative”.
With `COc1cccc2c1C(=O)c1c(O)c3c(c(O)c1C2=O)CC(O)(C(C)=O)CC3OC1CC(N2CCOCC2C#N)C(O)C(C)O1` (stereo not given), the mutagenic call runs as follows: under setting [5], “inactive; negative”; (Test System: AMES SALMONELLA TYPHIMURIUM, Strain/Indicator: TA98, Metabolic Activation: RAT, LIVER, S-9, AROCLOR 1254) “active; positive”; (Test System: CHINESE HAMSTER V-79, Strain/Indicator: V-79/8-AZAGUANINE, Metabolic Activation: NONE) “active; positive”; (Test System: CHINESE HAMSTER V-79, Strain/Indicator: V-79/8-AZAGUANINE, Metabolic Activation: RAT, HEPATOCYTES) “inactive; negative”; (Test System: UDS RAT HEPATOCYTES, Strain/Indicator: THY INCORP, Metabolic Activation: NONE, Method: AUTOMATIC COLONY COUNTER) “active; positive”.
Regarding `O/N=C/c1ccccn1`, the mutagenic call by setting is: (Test System: AMES SALMONELLA TYPHIMURIUM, Strain/Indicator: TA102, Metabolic Activation: RAT, LIVER, S-9, PHENOBARBITAL AND 5,6-BENZOFLAVONE, Method: STANDARD PLATE) “inactive; negative”; (Test System: AMES SALMONELLA TYPHIMURIUM, Strain/Indicator: TA2638, Metabolic Activation: RAT, LIVER, S-9, PHENOBARBITAL AND 5,6-BENZOFLAVONE, Method: STANDARD PLATE) “inactive; negative”; (Test System: E. COLI, Strain/Indicator: WP2 (PKM101), Metabolic Activation: RAT, LIVER, S-9, PHENOBARBITAL AND 5,6-BENZOFLAVONE, Method: STANDARD PLATE) “inactive; negative”; (Test System: E. COLI, Strain/Indicator: WP2 UVRA (PKM101), Metabolic Activation: RAT, LIVER, S-9, PHENOBARBITAL AND 5,6-BENZOFLAVONE, Method: STANDARD PLATE) “active; positive”.
Take `COCCO`: the mutagenic call runs as follows: (Test System: AMES SALMONELLA TYPHIMURIUM, Strain/Indicator: TA97, Metabolic Activation: HAMSTER, LIVER, S-9, AROCLOR 1254 (10 OR 30%), Method: PREINCUBATION) “inactive; negative”; (Test System: AMES SALMONELLA TYPHIMURIUM, Strain/Indicator: TA97, Metabolic Activation: NONE, Method: PREINCUBATION) “inactive; negative”; (Test System: AMES SALMONELLA TYPHIMURIUM, Strain/Indicator: TA97, Metabolic Activation: RAT, LIVER, S-9, AROCLOR 1254 (10 OR 30%), Method: PREINCUBATION) “inactive; negative”; (Test System: AMES SALMONELLA TYPHIMURIUM, Strain/Indicator: TA97A, Metabolic Activation: NONE, Method: STANDARD PLATE) “inactive; negative”; (Test System: AMES SALMONELLA TYPHIMURIUM, Strain/Indicator: TA97A, Metabolic Activation: RAT, LIVER, S-9, AROCLOR 1254, Method: STANDARD PLATE) “inactive; negative”; (Test System: AMES SALMONELLA TYPHIMURIUM, Strain/Indicator: TA98, Metabolic Activation: HAMSTER, LIVER, S-9, AROCLOR 1254 (10 OR 30%), Method: PREINCUBATION) “inactive; negative”. Also, the mutagenic call is “inactive; negative” (Test System: AMES SALMONELLA TYPHIMURIUM, Strain/Indicator: TA98, Metabolic Activation: NONE, Method: PREINCUBATION); “inactive; negative” under setting [1]; “inactive; negative” (Test System: AMES SALMONELLA TYPHIMURIUM, Strain/Indicator: TA98, Metabolic Activation: RAT, LIVER, S-9, AROCLOR 1254 (10 OR 30%), Method: PREINCUBATION); “inactive; negative” under setting [2]; “inactive; negative” (Test System: AMES SALMONELLA TYPHIMURIUM, Strain/Indicator: TA100, Metabolic Activation: HAMSTER, LIVER, S-9, AROCLOR 1254 (10 OR 30%), Method: PREINCUBATION); “inactive; negative” under setting [6]. In addition, the mutagenic call is, setting by setting: under setting [3], “inactive; negative”; (Test System: AMES SALMONELLA TYPHIMURIUM, Strain/Indicator: TA100, Metabolic Activation: RAT, LIVER, S-9, AROCLOR 1254 (10 OR 30%), Method: PREINCUBATION) “inactive; negative”; under setting [4], “inactive; negative”; (Test System: AMES SALMONELLA TYPHIMURIUM, Strain/Indicator: TA102, Metabolic Activation: NONE, Method: STANDARD PLATE) “inactive; negative”; (Test System: AMES SALMONELLA TYPHIMURIUM, Strain/Indicator: TA102, Metabolic Activation: RAT, LIVER, S-9, AROCLOR 1254, Method: STANDARD PLATE) “inactive; negative”; (Test System: AMES SALMONELLA TYPHIMURIUM, Strain/Indicator: TA1535, Metabolic Activation: HAMSTER, LIVER, S-9, AROCLOR 1254 (10 OR 30%), Method: PREINCUBATION) “inactive; negative”. Further, the mutagenic call (Test System: AMES SALMONELLA TYPHIMURIUM, Strain/Indicator: TA1535, Metabolic Activation: NONE, Method: PREINCUBATION) was “inactive; negative”; the mutagenic call (Test System: AMES SALMONELLA TYPHIMURIUM, Strain/Indicator: TA1535, Metabolic Activation: RAT, LIVER, S-9, AROCLOR 1254 (10 OR 30%), Method: PREINCUBATION) is “inactive; negative”; the mutagenic call (Test System: CHINESE HAMSTER OVARY, Strain/Indicator: CHO AS52 (GPT)/6-THIOGUANINE, Metabolic Activation: NONE) is “inactive; negative”; the mutagenic call (Test System: CHINESE HAMSTER OVARY, Strain/Indicator: CHO-AS52/6-THIOGUANINE, Metabolic Activation: NONE) is “inactive; negative”; the mutagenic call (Test System: CHINESE HAMSTER OVARY, Strain/Indicator: CHO-K1-BH4 (HGPRT)/6-THIOGUANINE, Metabolic Activation: NONE) is “inactive; negative”; the mutagenic call (Test System: CHINESE HAMSTER OVARY, Strain/Indicator: CHO-K1-BH4 (HGPRT)/6-THIOGUANINE, Metabolic Activation: RAT, LIVER, S-9, AROCLOR 1254) was “inactive; negative”.
`Nc1ccccc1O`: the mutagenic call is, setting by setting: under setting [5], “inactive; negative”; (Test System: AMES SALMONELLA TYPHIMURIUM, Strain/Indicator: TA98, Metabolic Activation: S-9) “inactive; negative”.
For the molecule `CC1(c2ccc([N+](=O)[O-])cc2)CO1` (stereo not given), the mutagenic call under setting [6] is “active; positive”.
As for `Cc1cnc2cc3nc(C)n(C)c3c(C)c2n1`, the mutagenic call (Test System: AMES SALMONELLA TYPHIMURIUM, Strain/Indicator: TA98, Metabolic Activation: S-9, Method: PREINCUBATION) is “inactive; negative”.
With `CC(=O)ON(C(C)=O)c1ccccc1C`, the mutagenic call by setting is: under setting [1], “inactive; negative”; under setting [2], “inactive; negative”; under setting [3], “inactive; negative”; under setting [4], “inactive; negative”.
As to `OCC(O)C1CO1` (stereo not given), the mutagenic call is, setting by setting: (End Point: IN VIVO MICRONUCLEUS, Test System: SPERMATID, Species: RAT, Strain/Sex: SPRAGUE-DAWLEY/MALE, Route: IP INJECTION) “active; positive”; under setting [3], “active; positive”; under setting [4], “active; positive”.
